Values of other authors, collected in patent publication EP1886664A1, “N-chloroamines containing compositions” (priority 2006, dated 2008).
Where two headings read alike, the source gives them in different places.

How the values were obtained:
Skin = settings: solution under 8%
mouse [1] = settings: after 90 days
[2] = test system: bacterial flora in the oral cavity
mouse [3] = settings: inhalation, 4 hours, maximum reached concentration
[4] = test system: Bacteria, Viruses, Fungi, Seaweed, Yeasts, Parasite
[5] = according to Buckley

SMILES | Irritation, Eye (Eye; Solution under 0.5%) | Irritation, Eye (Eye; solution under 8%) | Irritation, Skin (Skin) | fraction still active (ambient with organic matter and microorganisms, after 24 hours) | activity lost due to decomposition (solution under 5%, opaque container, 25°C, 210 days) | decomposed (solutions under 0.5%, 30 days, 40°C) [%] | oral toxicity, level at which nothing was observed (mouse [1]) [mg/kg/day] | duration of antiseptic action when applied as a therapeutics ([2]; in vivo) [h] | duration of strong sustainable effect after application ([2]; mouthrinse) | LC 50 (mouse [3]) [µg/mL] | biocide action ([4]; including viruses and microbacteria in the vegetative form either spori or not) | activity against microorganisms ([4]; organisms listed in the 1st table, the 2nd table and b31) | antiseptic power compared to hypochlorites [5] | activity compared to Dakin's liquid ([5]; in the presence of blood) | sporicide, viruscide and microbacteria activity (microbacteria)
Cc1ccc(S(=O)(=O)NCl)cc1 [T-chloramine, sodium N-chloro-para-toluenesulfamide] | not irritating | moderately irritating | not irritating | approximately half | less than 0.05% | 0.01 | 15 | 24 | at least one | > 0.275 | biocide action against all forms of microorganisms | active | four times higher than that of hypochlorites | more active than the Dakin's liquid | 
N=C(NCCCCCCNC(=N)NC(=N)Nc1ccc(Cl)cc1)NC(=N)Nc1ccc(Cl)cc1 [chlorexidine] |  |  |  |  |  |  |  |  |  |  |  |  |  |  | neither a sporicide, neither a viruscide and nor active against microbacteria
